Reference: patent US20090018134A1, “Compounds - 945” (AstraZeneca AB, priority 2007, published 2009)

Each molecule was assayed against T1, mTOR (Homo sapiens, UniProt P42345) (assay: In Vitro mTOR Kinase Assay (Echo), Test (a)(ii)). Settings: read-out: mTOR Kinase Assay (Echo).
T1 construct: FLAG; made in house
Type: biochemical
In short: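 Compounds were acoustically dispensed, then incubated with FLAG-tagged mTOR (1362-2549) for 2 hours at room temperature. Reactions were quenched with EDTA plus detection antibody and AlphaScreen beads and left overnight in the dark before reading. Loss of phospho-T389 signal gave IC50 values.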

T1 sequence (P42345 1362-2549): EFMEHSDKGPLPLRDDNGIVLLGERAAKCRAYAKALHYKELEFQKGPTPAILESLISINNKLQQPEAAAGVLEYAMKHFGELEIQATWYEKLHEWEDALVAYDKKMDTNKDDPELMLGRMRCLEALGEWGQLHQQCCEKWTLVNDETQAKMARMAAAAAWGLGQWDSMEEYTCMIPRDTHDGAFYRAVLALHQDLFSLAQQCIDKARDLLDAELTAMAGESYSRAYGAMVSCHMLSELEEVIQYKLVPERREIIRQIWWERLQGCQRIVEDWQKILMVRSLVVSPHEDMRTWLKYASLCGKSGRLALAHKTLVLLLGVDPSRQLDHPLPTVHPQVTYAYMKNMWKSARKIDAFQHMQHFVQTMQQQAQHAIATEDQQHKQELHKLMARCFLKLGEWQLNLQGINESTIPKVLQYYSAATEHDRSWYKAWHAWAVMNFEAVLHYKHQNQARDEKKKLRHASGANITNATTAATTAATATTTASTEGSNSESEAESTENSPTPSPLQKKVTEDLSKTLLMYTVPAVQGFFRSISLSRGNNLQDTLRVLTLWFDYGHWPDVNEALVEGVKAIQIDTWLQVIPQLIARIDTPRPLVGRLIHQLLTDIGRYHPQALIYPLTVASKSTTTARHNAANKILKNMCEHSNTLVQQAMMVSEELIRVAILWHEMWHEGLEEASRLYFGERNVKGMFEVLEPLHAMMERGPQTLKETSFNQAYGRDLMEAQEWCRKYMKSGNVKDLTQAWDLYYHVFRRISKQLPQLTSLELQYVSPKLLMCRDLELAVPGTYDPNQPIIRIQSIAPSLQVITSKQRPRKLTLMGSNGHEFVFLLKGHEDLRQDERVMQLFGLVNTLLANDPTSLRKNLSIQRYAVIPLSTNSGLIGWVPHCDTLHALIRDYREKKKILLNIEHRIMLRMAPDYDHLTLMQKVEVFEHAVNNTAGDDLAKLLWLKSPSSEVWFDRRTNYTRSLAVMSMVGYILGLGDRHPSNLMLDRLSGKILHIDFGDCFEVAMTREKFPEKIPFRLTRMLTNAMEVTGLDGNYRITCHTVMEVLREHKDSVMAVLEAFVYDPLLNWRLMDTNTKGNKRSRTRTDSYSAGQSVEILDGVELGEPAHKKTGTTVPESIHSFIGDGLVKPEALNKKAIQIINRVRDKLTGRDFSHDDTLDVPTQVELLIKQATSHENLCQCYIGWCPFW

SMILES	IC50
CC(C)NC(=O)Nc1ccc(-c2nc(N3CCOC[C@@H]3C)cc(C3(S(=O)(=O)C(C)C)CC3)n2)cc1 [Example 7b, 1-[4-[4-[(3S)-3-methylmorpholin-4-yl]-6-(1-propan-2-ylsulfonylcyclopropyl)pyrimidin-2-yl]phenyl]-3-propan-2-yl-urea]	18.1 nM
CS(=O)(=O)C1(c2cc(N3CCOCC3)nc(-c3ccc(NC(=O)NCCO)cc3)n2)CCCC1 [Example 12l, 3-(2-hydroxyethyl)-1-[4-[4-(1-methylsulfonylcyclopentyl)-6-morpholin-4-ylpyrimidin-2-yl]phenyl]urea]	1.38 nM
C[C@H]1COCCN1c1cc(C2(S(C)(=O)=O)CCCC2)nc(-c2ccc(NC(=O)Nc3ccccn3)cc2)n1 [Example 4l, 1-[4-[4-[(3S)-3-methylmorpholin-4-yl]-6-(1-methylsulfonylcyclopentyl)pyrimidin-2-yl]phenyl]-3-pyridin-2-yl-urea]	3.69 nM
C[C@H]1COCCN1c1cc(C2(S(=O)(=O)C3CCCC3)CC2)nc(-c2ccc(NC(=O)NC(C)(C)CO)cc2)n1 [Example 9k]	11.5 nM
CS(=O)(=O)C1(c2cc(N3CCOCC3)nc(-c3ccc(NC(=O)NCCO)cc3)n2)CCC1 [Example 12r, 3-(2-hydroxyethyl)-1-[4-[4-(1-methylsulfonylcyclobutyl)-6-morpholin-4-ylpyrimidin-2-yl]phenyl]urea]	0.991 nM
CCCNC(=O)Nc1ccc(-c2nc(N3CCOC[C@@H]3C)cc(C3(S(=O)(=O)C4CCCC4)CC3)n2)cc1 [Example 9h]	5.7 nM

Other lines, results leading:

IC50	SMILES
3.32 nM	CCS(=O)(=O)C1(c2cc(N3CCOC[C@@H]3C)nc(-c3ccc(NC(=O)Nc4ccc(C(F)(F)F)cc4)cc3)n2)CC1 [Example 11k, 1-[4-[4-(1-ethylsulfonylcyclopropyl)-6-[(3S)-3-methylmorpholin-4-yl]pyrimidin-2-yl]phenyl]-3-[4-(trifluoromethyl)phenyl]urea]
26.3 nM	C[C@H]1COCCN1c1cc(C2(S(=O)(=O)C3CC3)CC2)nc(-c2ccc(NC(=O)NC3(CO)CC3)cc2)n1 [Example 3s, 1-[4-[4-(1-cyclopropylsulfonylcyclopropyl)-6-[(3S)-3-methylmorpholin-4-yl]pyrimidin-2-yl]phenyl]-3-[1-(hydroxymethyl)cyclopropyl]urea]
2.73 nM	CCCNC(=O)Nc1ccc(-c2nc(N3CCOCC3)cc(C3(S(C)(=O)=O)CC3)n2)cc1 [Example 12g, 1-[4-[4-(1-methylsulfonylcyclopropyl)-6-morpholin-4-ylpyrimidin-2-yl]phenyl]-3-propylurea]
0.69 nM	C[C@H]1COCCN1c1cc(C2(S(C)(=O)=O)CCC2)nc(-c2ccc(NC(=O)Nc3cnn(C)c3)cc2)n1 [Example 5m, 1-[4-[4-[(3S)-3-methylmorpholin-4-yl]-6-(1-methylsulfonylcyclobutyl)pyrimidin-2-yl]phenyl]-3-(1-methylpyrazol-4-yl)urea]

Same assay, conditions: table of enzyme assay Test (a)(ii); read-out: Test (a)(ii) IC50

SMILES	IC50
CNCCS(=O)(=O)C1(c2cc(N3CCOCC3)nc(-c3ccc(NC(=O)NC)cc3)n2)CC1 [Example 97, 3-Methyl-1-[4-[4-[1-(2-methylaminoethylsulfonyl)cyclopropyl]-6-morpholin-4-ylpyrimidin-2-yl]phenyl]urea]	88.2 nM
C[C@H]1COCCN1c1cc(C2(S(=O)(=O)c3ccccn3)CC2)nc(-c2ccc(NC(=O)NCc3ncc[nH]3)cc2)n1 [Example 36cu, 3-(1H-imidazol-2-ylmethyl)-1-[4-[4-[(3S)-3-methymorpholin-4-yl]-6-(1-pyridin-2-ylsulfonylcyclopropyl)pyrimidin-2-yl]phenyl]urea]	68.6 nM
C[C@H]1COCCN1c1cc(C2(S(=O)(=O)C3CC3)CC2)nc(-c2ccc(NC(=O)NC3CC3)nc2)n1 [Example 14, 3-Cyclopropyl-1-[5-[4-(1-cyclopropylsulfonylcyclopropyl)-6-[(3S)-3-methylmorpholin-4-yl]pyrimidin-2-yl]pyridin-2-yl]urea]	46.5 nM
C[C@H]1COCCN1c1cc(C2(S(=O)(=O)c3ccncc3)CC2)nc(-c2ccc(NC(=O)NCc3ncc[nH]3)cc2)n1 [Example 36cw, 3-(1H-imidazol-2-ylmethyl)-1-[4-[4-[(3S)-3-methylmorpholin-4-yl]-6-(1-pyridin-4-ylsulfonylcyclopropyl)pyrimidin-2-yl]phenyl]urea]	49.3 nM
CC[C@H]1COCCN1c1cc(C2(S(=O)(=O)c3ccccc3)CC2)nc(-c2ccc(NC(=O)NC3CC3)cc2)n1 [Example 74a, 1-[4-[4-[1-(benzenesulfonyl)cyclopropyl]-6-[(3S)-3-ethylmorpholin-4-yl]pyrimidin-2-yl]phenyl]-3-cyclopropylurea]	3.98 nM
C[C@H]1COCCN1c1cc(C2(S(=O)(=O)CCO)CC2)nc(-c2ccc(NC(=O)NC3CC3)cc2)n1 [Example 15, 3-Cyclopropyl-1-[4-[4-[1-(2-hydroxyethylsulfonyl)cyclopropyl]-6-[(3S)-3-methylmorpholin-4-yl]pyrimidin-2-yl]phenyl]urea]	1.54 nM
C[C@H]1COCCN1c1cc(C2(S(=O)(=O)c3ccc(C#N)cc3)CC2)nc(-c2ccc(NC(=O)NC3CC3)cc2)n1 [Example 77, 1-[4-[4-[1-(4-Cyanophenyl)sulfonylcyclopropyl]-6-[(3S)-3-methylmorpholin-4-yl]pyrimidin-2-yl]phenyl]-3-cyclopropylurea]	8.21 nM
CCNC(=O)Nc1ccc(-c2nc(N3CCOC[C@@H]3C)cc(C3(S(=O)(=O)c4cncc(F)c4)CC3)n2)cc1 [Example 17a, 3-ethyl-1-[4-[4-[1-(5-fluoropyridin-3-yl)sulfonylcyclopropyl]-6-[(3S)-3-methylmorpholin-4-yl]pyrimidin-2-yl]phenyl]urea]	0.942 nM
CNC(=O)Nc1ccc(-c2nc(N3CCOC[C@@H]3C)cc(C3(S(=O)(=O)c4ccc(F)cc4C)CC3)n2)cc1 [Example 82, 1-[4-[4-[1-(4-Fluoro-2-methylphenyl)sulfonylcyclopropyl]-6-[(3S)-3-methylmorpholin-4-yl]pyrimidin-2-yl]phenyl]-3-methylurea]	9.39 nM

Next, values leading:

IC50	SMILES
4.52 nM	CC(C)NC(=O)Nc1ccc(-c2nc(N3CCOC[C@@H]3C)cc(C3(S(=O)(=O)CCCO)CC3)n2)cc1 [Example 31, 1-[4-[4-[1-(3-Hydroxypropylsulfonyl)cyclopropyl]-6-[(3S)-3-methylmorpholin-4-yl]pyrimidin-2-yl]phenyl]-3-propan-2-ylurea]
1.91 nM	CCCNC(=O)Nc1ccc(-c2nc(N3CCOC[C@@H]3C)cc(C3(S(=O)(=O)CCCO)CC3)n2)cc1 [Example 31k, 3-[4-[4-[1-(3-hydroxypropylsulfonyl)cyclopropyl]-6-[(3S)-3-methylmorpholin-4-yl]pyrimidin-2-yl]phenyl]-1-propylurea]
7.04 nM	C[C@H](CO)NC(=O)Nc1ccc(-c2nc(N3CCOC[C@@H]3C)cc(C3(S(=O)(=O)c4ccccc4)CC3)n2)cc1 [Example 36ed, 1-[4-[4-[1-(benzenesulfonyl)cyclopropyl]-6-[(3S)-3-methylmorpholin-4-yl]pyrimidin-2-yl]phenyl]-3-[(2R)-1-hydroxypropan-2-yl]urea]
1.17 nM	C[C@H]1COCCN1c1cc(C2(S(C)(=O)=O)CC2)nc(-c2ccc(NC(=O)Nc3nccs3)cc2)n1 [Example 36ay, 1-[4-[4-[(3S)-3-methylmorpholin-4-yl]-6-(1-methylsulfonylcyclopropyl)pyri-midin-2-yl]phenyl]-3-(1,3-thiazol-2-yl)urea]
1140 nM	C[C@H]1COCCN1c1cc(C2(S(=O)(=O)c3ccc(Cl)cc3)CCOCC2)nc(-c2ccc(NC(=O)NCCN(C)C)cc2)n1 [Example 23k, 1-[4-[4-[4-(4-chlorophenyl)sulfonyloxan-4-yl]-6-[(3S)-3-methylmorpholin-4-yl]pyrimidin-2-yl]phenyl]-3-(2-dimethylaminoethyl)urea]
8.91 nM	Cn1cc(NC(=O)Nc2ccc(-c3nc(N4CCOCC4)cc(C4(S(=O)(=O)c5ccccc5)CC4)n3)cc2)cn1 [Example 36dj, 3-[4-[4-[1-(benzenesulfonyl)cyclopropyl]-6-morpholin-4-ylpyrimidin-2-yl]phenyl]-1-(1-methylpyrazol-4-yl)urea]
1.61 nM	Cc1csc(S(=O)(=O)C2(c3cc(N4CCOC[C@@H]4C)nc(-c4ccc(NC(=O)Nc5ncns5)cc4)n3)CC2)n1 [Example 36p, 1-[4-[4-[(3S)-3-methylmorpholin-4-yl]-6-[1-[(4-methyl-1,3-thiazol-2-yl)sulfonyl]cyclopropyl]pyrimidin-2-yl]phenyl]-3-(1,2,4-thiadiazol-5-yl)urea]
3.85 nM	CC[C@H]1COCCN1c1cc(C2(S(C)(=O)=O)CC2)nc(-c2ccc(NC(=O)NCCO)cc2)n1 [Example 84b, 1-[4-[4-[(3S)-3-ethylmorpholin-4-yl]-6-(1-methylsulfonylcyclopropyl)pyrimidin-2-yl]phenyl]-3-(2-hydroxyethyl)urea]
0.604 nM	C[C@H]1COCCN1c1cc(C2(S(C)(=O)=O)CCC2)nc(-c2ccc(NC(=O)Nc3cnn(C)c3)cc2)n1 [Example 5m, 1-[4-[4-[(3S)-3-methylmorpholin-4-yl]-6-(1-methylsulfonylcyclobutyl)pyrimidin-2-yl]phenyl]-3-(1-methylpyrazol-4-yl)urea]
12.4 nM	C[C@H]1COCCN1c1cc(C2(S(=O)(=O)c3ccc(C#N)cc3Cl)CC2)nc(-c2ccc(NC(=O)NCCO)cc2)n1 [Example 85j, 1-[4-[4-[1-(2-chloro-4-cyanophenyl)sulfonylcyclopropyl]-6-[(3S)-3-methylmorpholin-4-yl]pyrimidin-2-yl]phenyl]-3-(2-hydroxyethyl)urea]
68.1 nM	C[C@H]1COCCN1c1cc(C2(S(=O)(=O)CCCO)CC2)nc(-c2ccc(NC(=O)NC3(C)CC3)cc2)n1 [Example 36cl, 1-[4-[4-[1-(3-hydroxypropylsulfonyl)cyclopropyl]-6-[(3S)-3-methylmorpholin-4-yl]pyrimidin-2-yl]phenyl]-3-(1-methylcyclopropyl)urea]
4.67 nM	C[C@H](CO)NC(=O)Nc1ccc(-c2nc(N3CCOC[C@@H]3C)cc(C3(S(=O)(=O)c4ccccc4)CCC3)n2)cc1 [Example 64q, 1-[4-[4-[1-(benzenesulfonyl)cyclobutyl]-6-[(3S)-3-methylmorpholin-4-yl]pyrimidin-2-yl]phenyl]-3-[(2R)-1-hydroxypropan-2-yl]urea]
